Test results published in PubChem BioAssay (NCI).
“And” between values parts separate entries of the source, which are not always exact repeats. Identical values can stand only once.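 Exposure lasted 48 hours, with cells grown in 96-well plates and compounds tested at five concentrations. GI50 = concentration required for 50% inhibition of growth. TGI: total growth inhibition.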

Legend:
Test in all cases: NCI anticancer screen, dose series, 48 h
EKVX NSCLC = tested on: EKVX NSCLC
HCT-116 colon = tested on: HCT-116 colon
HOP-62 NSCLC = tested on: HOP-62 NSCLC
M14 melanoma = tested on: M14 melanoma
OVCAR-4 ovarian = tested on: OVCAR-4 ovarian
OVCAR-5 ovarian = tested on: OVCAR-5 ovarian
OVCAR-8 ovarian = tested on: OVCAR-8 ovarian
SK-MEL-5 melanoma = tested on: SK-MEL-5 melanoma
U251 CNS = tested on: U251 CNS
UACC-257 melanoma = tested on: UACC-257 melanoma

Row | SMILES | GI50 (EKVX NSCLC) [µM] | TGI (EKVX NSCLC) [µM] | GI50 (HCT-116 colon) | TGI (HCT-116 colon) [µM] | GI50 (HOP-62 NSCLC) | TGI (HOP-62 NSCLC) | GI50 (M14 melanoma) | TGI (M14 melanoma) | GI50 (OVCAR-4 ovarian) | TGI (OVCAR-4 ovarian) | GI50 (OVCAR-5 ovarian) | TGI (OVCAR-5 ovarian) [µM] | GI50 (OVCAR-8 ovarian) | TGI (OVCAR-8 ovarian) | GI50 (SK-MEL-5 melanoma) | TGI (SK-MEL-5 melanoma) | GI50 (U251 CNS) | TGI (U251 CNS) [µM] | GI50 (UACC-257 melanoma) | TGI (UACC-257 melanoma)
1 | Cc1ccc(NS(=O)(=O)c2cccc(C#N)c2)c2[nH]cc(C#N)c12 | 26.6 | 80.9 | 0.146 µM and 0.157 µM | > 100 | 20.1 µM and 29.8 µM | 96.4 µM and > 100 µM | 20 µM and 16.3 µM | > 100 µM | 2.65 µM and 8.22 µM | 87.2 µM and 51.2 µM | 16.7 µM and 30.6 µM | > 92.7 | 19.1 µM and 15.8 µM | > 100 µM and 69.3 µM | 15.6 µM and 17 µM | 33.5 µM and 43.3 µM | 17.5 µM and 15.2 µM | > 100 | 21.9 µM and 22.5 µM | 69.1 µM and 84.7 µM
2 | CC(C)(C)c1ccc(OCCOCCOc2ccc(C(C)(C)C)cc2S(=O)(=O)Nc2ccc([N+](=O)[O-])cc2)c(S(=O)(=O)Nc2ccc([N+](=O)[O-])cc2)c1 |  | > 100 |  | > 100 |  | > 100 µM |  | > 100 µM |  | > 100 µM |  | > 100 |  | > 100 µM |  | > 100 µM |  | > 100 |  | > 100 µM
3 | O=C(O/N=C1/CCC/C1=C\c1ccccc1)c1ccc(Cl)c(Cl)c1 |  | > 100 |  | > 100 |  | > 100 µM |  | > 100 µM |  | > 100 µM |  | > 100 |  | > 100 µM |  | > 100 µM |  | > 100 |  | > 100 µM
4 | O=C1/C(=C/c2ccc(Cl)cc2)CCC/C1=C\c1ccc(Cl)cc1 | > 100 | > 100 | 1.65 µM | 3.02 | 8.1 µM | > 100 µM | 3.04 µM | 8.7 µM | 5.17 µM | > 100 µM | > 100 µM | > 100 | 3.64 µM | > 100 µM | 4.26 µM | > 100 µM | 2.66 µM | 7.88 | 4.17 µM | > 100 µM
5 | Oc1c(Cl)cc(Cl)cc1C(c1cc(Cl)cc(Cl)c1O)C(Cl)(Cl)Cl | 1.61 | 4.51 | 1.32 µM | 3.67 | 3.77 µM | 15 µM | 3.11 µM | 10.1 µM | 3.21 µM | 19 µM | 3.27 µM | 14.5 | 3.12 µM | 15.7 µM | 1.21 µM | 2.73 µM | 2.52 µM | 14.4 | 3.33 µM | 9.18 µM
6 | Cc1cn2c(/C=N/N=C(N)N)c(-c3ccccn3)nc2s1 | 8.37 | 25.8 | 6.29 µM | 25.8 | 10.5 µM | 26.9 µM | 19.6 µM | > 52.1 µM | 15.2 µM | 40.1 µM | 22.3 µM | 46 | 13.9 µM | > 56.2 µM | 7.95 µM | 25.8 µM | 19.1 µM | 45.1 | 7.78 µM | 17.9 µM
7 | [N-]=[N+]=NCCCn1c2c(c3ccc([N+](=O)[O-])cc3c1=O)C(=O)c1cc(F)ccc1-2 | 61.2 | > 100 | 0.388 µM | 3.3 | 0.32 µM | 7.04 µM | 1.13 µM | 11.1 µM | 16.2 µM | > 95.7 µM | 14.4 µM | > 100 | 2.67 µM | > 100 µM | 0.803 µM | 3.16 µM | 0.539 µM | 8.89 | 10.3 µM | > 100 µM
8 | O=C(Nc1cccc(Cl)c1)c1cccc(NC2=C(Cl)C(=O)N(Cc3ccccc3)C2=O)c1 | > 100 | > 100 | 10.1 µM | 42.4 | 0.84 µM | 42.8 µM | 18.3 µM | 67.3 µM | 68.5 µM | > 100 µM | > 100 µM | > 100 | 56.4 µM | > 100 µM | 34 µM | > 100 µM | 43.1 µM | > 100 | 72.5 µM | > 100 µM
9 | CSC(=S)OC1CC(n2cnc3c(NC(=O)c4ccccc4)ncnc32)OC1CO[Si](C)(C)C(C)(C)C (configuration not stated) |  | > 56.2 |  | > 100 |  | 46 µM |  | > 56.2 µM |  | > 56.2 µM |  | > 56.2 |  | > 56.2 µM |  | 18.3 µM |  | 44.4 |  | > 56.2 µM
10 | CC1=C(C(=O)Nc2cc(Cl)c3[nH]ncc3c2)C(c2ccc(C(F)(F)F)cc2)CC(=O)N1 (configuration not stated) | > 25 | > 25 | > 22.4 µM | > 25 | 5.07 µM | > 25 µM | > 25 µM | > 25 µM | > 25 µM | > 25 µM | > 25 µM | > 25 | > 25 µM | > 25 µM | 11.4 µM | > 25 µM | > 25 µM | > 25 | > 25 µM | > 25 µM
11 | CC([C@H]1CCC2C3CCC4C[C@@H](N)CC[C@]4(C)C3CC[C@@]21C)N(C)C (some centres not stated) | 13.8 | 54.8 | 1.9 µM | 5.02 | 6.1 µM | 12 µM | 1.79 µM | 3.54 µM | 9.12 µM | 38.9 µM | 17.5 µM | 41.4 | 15.7 µM | > 53.6 µM | 1.95 µM | 5.23 µM | 3.61 µM | 15.6 | 2.4 µM | 5.42 µM
12 | Fc1cccc(-n2ccc(-c3ccccc3)nc2=S)c1 | 17.7 | 33.4 | 21.9 µM | 61.3 | > 63.4 µM | > 100 µM | 73 µM | > 100 µM | 98.6 µM | > 100 µM | > 94.4 µM | > 100 | 26.6 µM | > 57.7 µM | 23.1 µM | > 73.1 µM | 43.2 µM | > 100 | 46.7 µM | > 100 µM
13 | COC(=O)C12OCC34C(CC5C(C)C6=CC(=O)OC6=CC5(C)C3C(O)C1O)OC(=O)C(O)C24 (configuration not stated) | 0.249 |  | 0.224 µM | 6.31 | 0.177 µM | 0.704 µM and 3.54 µM | 0.177 µM and 0.767 µM | 0.504 µM and 2.22 µM | 0.155 µM |  | 0.599 µM | 20.3 | 0.328 µM | 14.7 µM | 0.373 µM | 0.255 µM and 2.31 µM | 0.0446 µM |  | 0.339 µM | 8.5 µM
